Tests used:
red blood cells = assay: Hemolysis assay on mouse red blood cells; assay type: cell-based, BALB/c mouse; details: mouse red blood cells in PBS, peptides 1-40 μM, 4 h at 37 °C, OD 450 nm of supernatant, 2% Triton X-100 positive control, mean of n = 3
Experimental: Melittin has been well-documented to have strong hemolytic effects. To diminish such adverse effects, several truncated melittin were synthesized and analyzed in vitro (Figure 2A). Mouse blood cells were treated with varying concentrations of peptides for 4 h, and the optical density was measured using a microplate reader.
Figure 2 Melittin fragments have fewer hemolytic effects than melittin. (A) Amino acid sequence of melittin and melittin-truncated peptide. (B) Hemolysis of red blood cells treated with FITC-conjugated melittin or FITC-conjugated melittin fragments at concentrations ranging from 1 μM to 40 μM and incubated at 37 °C for 4 h. […] The optical density of hemoglobin released supernatant was measured at 450 nm. […]
Figure 4 Characterization of the optimized hybrid peptide drug, PEG-melittin-dKLA 8-26. […] The optical density was measured at 490 nm. […] The optical density of hemoglobin released in the supernatant was measured at 450 nm. […]
Blood was collected from each BALB/c mouse. […] The optical density of the samples was measured at 450 nm using a microplate reader (Molecular Devices). The percentage of hemolysis was calculated using the following equation: hemolysis (%) = (OD450 nm sample − OD450 nm negative control)/(OD450 nm positive control − OD450 nm negative control) × 100%. All data are expressed as the mean ± SEM of three independent experiments.

[1] = test system: THP-1-derived M2 macrophages; assay: Flow cytometry binding of FITC-conjugated peptides to M2 macrophages; assay type: cell-based, human; details: 100 nM FITC-conjugated peptides, 1 h, percentage of FITC-positive cells, n = 3
Experimental: To address the binding ability of truncated melittin peptides to M2 macrophages, fluorescein isothiocyanate (FITC)-conjugated peptides were synthesized and incubated with M2 macrophages, and the percentage of FITC-positive cells was measured using flow cytometry. […] Next, to confirm and compare the binding capabilities of melittin and melittin 8-26 to different macrophage lineages, including M0, M1, and M2, FITC-conjugated peptides were tested on each macrophage phenotype, and their binding capabilities were measured by flow cytometry. […]
Figure 3 Binding of melittin fragments to the THP-1-derived M2 macrophages. […] (A) Melittin or melittin fragment affinity for M2 macrophages was measured using flow cytometry. […] (B) The affinity of melittin or melittin 8-26 for macrophages was detected by flow cytometry. TEXT PRINTED IN THE PICTURE: (B) Melittin: M0: 21.78; M1: 17.22; M2: 46.02 | (B) Melittin 8-26: M0: 26.8; M1: 14.74; M2: 34.66 DOUBTS OF THE COPYIST ABOUT THIS PICTURE: Panel B: the tiny quadrant labels (UL 0.00, UR 0.00, and LL values such as about 78.22, 53.98, 73.20, 85.26, 65.34) are too small, blurred or partly hidden by the dots to read with certainty, so they are left out. / Panel B: no measure or unit is printed with the large quadrant numbers. […]

Substance: melittin
- concentration at which hemolysis was observed (red blood cells): above 5 μM
- binding affinity to M2 macrophages (in words) [1]: highest binding affinity

Reference: PMC9779714, “Enhanced Therapeutic Effect of Optimized Melittin-dKLA, a Peptide Agent Targeting M2-like Tumor-Associated Macrophages in Triple-Negative Breast Cancer” (International Journal of Molecular Sciences, 2022)
